Measured values as given in US6030943A, “Dehydrodidemnin B as an L-type calcium channel enhancer” (priority 1998, dated 2000).
Starred links: 1 amine or outer side, 2 acyl side, 3 side chain; linkers in the order of their positions; H or OH if unused. Positions of bridges follow the written chain, without caps; N, C: chain ends. Non-standard residues stand in square brackets, D forms with d. Residues, ends and D or L forms follow the SMILES beside them. *: point of attachment. X1 = CC[C@H](C)[C@@H](N[*:1])[C@@H](O)CC(=O)O[C@H](C(=O)[C@H](C)C(=O)[*:2])C(C)C; NMeY = CN[C@@H](Cc1ccc(O)cc1)C(=O)O; dNMeL = CN[C@H](CC(C)C)C(=O)O; Pyruvoyl = CC(=O)C(=O)*

Tests used:
L-type calcium channel = assay: Whole-cell patch clamp measurement of calcium current (ICa) in isolated human atrial myocytes; format: cell-based; conditions: for action on human atrial ICa (current amplitude): whole-cell patch clamp, 22° C., composite dose-response curve (FIG. 2), compared with cells not exposed to drug
Protocol: Human atrial myocytes were obtained from specimens of human right atrial appendage obtained during surgery from hearts of patients undergoing cardiopulmonary bypass. Tissue samples were quickly immersed in a cardioplegia solution consisting of (in mmol/L): 50 KH2 PO4, 8 MgSO4, 10 NaHO3, 5 adenosine, 25 taurine, 140 glucose, and 100 mannitol, titrated to a pH of 7.4 and bubbled with 100% O2 at 0-4° C. Specimens were then minced into 0.5-1 mm cubes and transferred to a 50 ml conical tube containing an ultra-low calcium wash solution containing (in mmol/L); 137 NaCl, 5 KH2 PO4, 1 MgSO4, 10 taurine, 10 glucose, 5 HEPES, and 100 μmol/L (μM) EGTA; pH=7.4 (22-24° C.).
The tissue was next gently agitated by continuous bubbling with 100% O2 for 5 minutes. The tissue was then incubated in 5 ml of solution containing (in mmol/L): 137 NaCl, 5 KH2 PO4, 10 taurine, 10 glucose, 5 HEPES, supplemented with 0.1% bovine albumin, 2.2 mg/ml collagenase type V and 1.0 mg/ml protease type XXIV (Sigma Chemical), pH=7.4 (37° C.) and bubbled continuously with 100% O2. The supernatant was removed after 40 minutes and discarded. The chunks were incubated in a solution of the same ionic composition but supplemented with only collagenase and 100 μmol/L CaCl2.
Microscopic examination of the medium was performed every 5-10 minutes to determine the number and quality of the isolated cells. When the yield appears to be maximal, the cell suspension was centrifuged for 2 minutes and the resulting pellet was resuspended in a modified Kraftbruhe solution containing (in mmol/L): 25 KCl, 10 KH2 PO4, 25 taurine, 0.5 EGTA, 22 glucose, 55 glutamic acid, and 0.1% bovine albumin, pH=7.3 (22-24° C.). Cells were used within 8 hrs after isolation. […]
Ionic currents were measured using the whole-cell variant of the patch clamp technique. […]
Calcium (Ca) currents were measured using an external solution having the composition (in mM): 1.8 CaCl2, 137 NaCl, 20 CsCl, 4 KCl, 1 MgCl2, 10 HEPES, 10 dextrose pH=7.4 with NaOH. […]

[1] = Effect on blood pressure (statement, no method described); conditions: in vivo

Structure (SMILES)	L-type calcium channel enhancement (L-type calcium channel; FIGS. 1A, 1B and 2)	action on human atrial ICa (current amplitude) (L-type calcium channel)	effect on blood pressure [1]
CC[C@H](C)[C@H]1NC(=O)[C@@H](NC(=O)[C@@H](CC(C)C)N(C)C(=O)[C@@H]2CCCN2C(=O)C(C)=O)[C@@H](C)OC(=O)[C@H](Cc2ccc(OC)cc2)N(C)C(=O)[C@@H]2CCCN2C(=O)[C@H](CC(C)C)NC(=O)[C@@H](C)C(=O)[C@H](C(C)C)OC(=O)C[C@@H]1O [Aplidine, dehydrodidemnin B] (Pyruvoyl-P[dNMeL]T[X1]LP[NMeY](Me); ester 3-C)	potent L-type calcium channel enhancer	highly effective, producing a very large increase in current amplitude	no effect on blood pressure
CC[C@H](C)[C@H]1NC(=O)[C@@H](NC(=O)[C@@H](CC(C)C)N(C)C(=O)[C@@H]2CCCN2C(=O)C(C)O)[C@@H](C)OC(=O)[C@H](Cc2ccc(OC)cc2)N(C)C(=O)[C@@H]2CCCN2C(=O)[C@H](CC(C)C)NC(=O)[C@@H](C)C(=O)[C@H](C(C)C)OC(=O)C[C@@H]1O (stereo partly shown) [Didemnin B]	–	no effect	–
